Assay: cuticle abrasion test (hair washed with shampoo test composition, blended, cuticle recovered and weighed)
Conditions: freeze-dried cuticle weighed back after abrasion; 0.03M compound in base shampoo; 4 g hair washed twice in 0.4 g test composition; lower = less cuticle loss
Method: A base shampoo composition was prepared, comprising 12 wt % sodium lauryl ether sulphate (2EO), […] cocoamidopropyl betaine and 86 wt. % water.
To this base solution 0.03M of the following compounds was added:
The compositions were tested in a cuticle abrasion test. Root end hair (as received form the supplier) was pre-cleaned by washing for 1 minute in Composition I followed by copious rinsing in double deionised water. The hair was left to dry naturally over 24 hrs.
For each test, 4 g of hair was washed in 0.4 g of the test composition for 30 seconds, rinsed for 30 seconds, and the washing/rinsing cycle repeated. The hair was left to dry naturally overnight.
The hair was cut into 1 cm lengths, placed in a blender bucket and 200 ml of double de-ionized water was added. The blender was placed on full power for 1 minute. The liquor was decanted off and transferred to a 50 ml centrifuge tube and centrifuged for 10 minutes at 4,300 RPM. The resulting clear liquor was decanted off leaving the cuticle sediment at the bottom of the tube.
The cuticle was transferred from the tube into a beaker with 3×5 ml washes and passed through a series of sieves (425 and 53 microns). The sieves were washed with a further 2×10 ml of water to ensure complete recovery of the cuticle. The sample was made up to 50 ml in a centrifuge tube, centrifuged for 15 minutes and the liquor decanted off. The cuticle was transferred with double deionised water (2×10 ml washes) to a beaker and freeze-dried.
The freeze-dried cuticle was weighed back to determine percentage recovery.

Q: For `CCC(C)(O)CCCC(C)C` (stereo not drawn) [B, 3,7-dimethyl-3-octanol, reference compound], which “% recovery” value is on record?
A: 0.84%

Q: Which “% recovery” value does the source give for `CC(C)CC(C)O` (stereo not drawn) [C, 4-methyl-2-pentanol, reference compound] here?
A: 0.79%

Q: With `CCCCC(C)(C)O` [Example 1, 2-methyl-2-hexanol] as the compound, how does the “% recovery” value read?
A: 0.53%

Q: With `CCCCCC(C)(C)O` [Example 2, 2-methyl-2-heptanol] as the compound, how does the “% recovery” value read?
A: 0.54%

Q: With `CCCCC(O)C(C)C` (stereo not drawn) [Example 3, 2-methyl-3-heptanol] as the compound, how does the “% recovery” value read?
A: 0.55%

Q: For `CCCC(C)(C)O` [Example 4, 2-methyl-2-pentanol], which “% recovery” value is on record?
A: 0.58%

Q: With `CCC(C)C(C)O` (stereo not drawn) [Example 6, 3-methyl-2-pentanol] as the compound, how does the “% recovery” value read?
A: 0.62%

Q: With `CCCC(C)CO` (stereo not drawn) [Example 7, 2-methyl-1-pentanol] as the compound, how does the “% recovery” value read?
A: 0.64%

Q: Which “% recovery” value does the source give for `CCCC(C)(O)CC(C)C` (stereo not drawn) [Example A, 2,4-dimethyl-4-heptanol, reference compound] here?
A: 0.84%
